In brackets after ≈: the same amount, converted by molar mass.
Assays:
[1] = tested on: houseflies, susceptible strain (SNAIDM); assay: Insecticidal activity, housefly, susceptible strain (SNAIDM), Table I; assay type: in vivo; details: for SNAIDM alone (insecticidal activity; head is a drawing): compound alone; for SNAIDM with P.B. (insecticidal activity; head is a drawing): with piperonyl butoxide synergist
Text: (§1) Metabolic studies involving insects, mice, and fish and a model ecosystem (such as described in U.S. Pat. No. 3,787,505) and insecticidal activity studies generally involving flies and mosquitoes have shown that both the symmetrical and the asymmetrical compounds of the present invention are effective. Thus, the new compounds can be represented by the general formula: [drawing 3] where R1 is H or Cl and R2 is CH3 or Cl, X and X^1 are the same or different and each is selected from the group consisting of C1 to C3 alkyl groups and C1 to C4 alkoxy groups.
(§2) In addition, DCP was tested for mouse toxicity, fish toxicity and biodegradibility.

[2] = Biodegradability studies, general statement
Text: as §1, §2

fish = assay: Fish toxicity, Table I; assay type: in vivo
Description: as §2

mice [3] = assay: Mouse toxicity, oral, Table I; assay type: in vivo; details: for mouse toxicity (head is a drawing): oral administration
Description: as §2

[4] = tested on: houseflies, DDT resistant strain (RSP); assay: Insecticidal activity, housefly, resistant strain (RSP), Table I; assay type: in vivo; details: for RSP alone (insecticidal activity; head is a drawing): compound alone; for RSP with P.B. (insecticidal activity; head is a drawing): with piperonyl butoxide synergist
Text: as §1, §2

[5] = tested on: Musca domestica Rsp strain; assay: Insect toxicity, Musca domestica Rsp strain, DDT-resistant; assay type: in vivo
Culex fatigans = assay: Persistence on plywood surfaces of test huts, Culex fatigans; assay type: in vivo; details: adult mosquitoes
Description: (§3) The persistence of some of the compounds of the present invention was evaluated and compared with that of ethoxychlor. In these tests, the compounds were applied to the plywood surfaces of test huts and the mortalities of adult mosquitoes contained in the huts were measured to determine the number of weeks that 50% mortality continued to occur.

Culex fatigans larvae = assay: Insect toxicity, Culex fatigans larvae; assay type: in vivo; details: Culex quinquefasciatus
Anopheles albimanus = assay: Persistence on plywood surfaces of test huts, Anopheles albimanus; assay type: in vivo; details: adult mosquitoes
Description: as §3

Phormia regina = assay: Insect toxicity, Phormia regina; assay type: in vivo
[6] = tested on: green sunfish (Lepomis cyanellus); assay: Green sunfish toxicity over a period of time; assay type: in vivo; details: initial concentration 0.1 ppm
Text: The compounds of Example III, V, XI, XIV and XXI were further tested and compared with ethoxychlor to determine fish toxicities over a period of time. In these tests, green sunfish (Lepomis cyanellus) were subject to an initial concentration dosage of 0.1 ppm and the number of days that 100 percent mortalities occurred was observed.

[7] = tested on: Anopheles albimanus larvae; assay: Insect toxicity, Anopheles albimanus larvae; assay type: in vivo
Culex fatigans adults = assay: Insect toxicity, Culex fatigans adults; assay type: in vivo
Mouse toxicity, LD50 = assay type: in vivo, mice; details: in vivo
mice [8] = assay: Mouse toxicity, LD50; assay type: in vivo; details: versus ethoxychlor
[9] = tested on: Anopheles albimanus adults; assay: Insect toxicity, Anopheles albimanus adults; assay type: in vivo
[10] = tested on: insects (flies and mosquitoes); assay: Insecticidal activity, general statement; assay type: in vivo; details: versus ethoxychlor
Text: as §1

[11] = tested on: Musca domestica (NAIDM strain); assay: Insect toxicity, Musca domestica NAIDM strain; assay type: in vivo

For `COc1ccc(C(c2ccc(OC)cc2)C(C)Cl)cc1` (stereo not drawn) [DCP, 1,1-bis(p-methoxyphenyl)-2-chloropropane], the “toxicity to susceptible strain of houseflies, alone (in words)” value ([1]; alone) was “not as toxic as DDT or methoxychlor”, the “SNAIDM alone (insecticidal activity; head is a drawing)” value (from here on “SNAIDM alone”) [1] was 935 and the “toxicity to susceptible strain of houseflies with piperonyl butoxide (in words)” value ([1]; with P.B.) was “at least as toxic as methoxychlor and considerably more toxic than DDT”. For the same compound, the “SNAIDM with P.B. (insecticidal activity; head is a drawing)” value [1] was 3.5, the “biodegradability (in words)” value [2] was “more biodegradable than methoxychlor” and the “fish toxicity (head is a drawing)” value (fish) was > 3. The “fish toxicity (in words)” value (fish) was “less toxic than either DDT or methoxychlor”, the “mouse toxicity (head is a drawing)” value (mice [3]) was > 1000 and the “mouse toxicity (in words)” value (mice [3]; oral administrations to mice) was “considerably less toxic than DDT and comparable to methoxychlor”. For the same compound, the “toxicity to DDT resistant strain of houseflies, alone (in words)” value ([4]; DDT resistant strain, alone) was “not as toxic as DDT or methoxychlor”, the “RSP alone (insecticidal activity; head is a drawing)” value (shortened to “RSP alone”) ([4]; resistant strain) was > 500 and the “toxicity to resistant strain of houseflies with piperonyl butoxide (in words)” value ([4]; resistant strain, with P.B.) was “at least as toxic as methoxychlor and considerably more toxic than DDT”. For the same compound, the “RSP with P.B. (insecticidal activity; head is a drawing)” value ([4]; resistant strain) was 4.1.
For `Clc1ccc(C(c2ccc(Cl)cc2)C(Cl)(Cl)Cl)cc1` [DDT, 1,1,1-trichloro-2,2-bis(p-chlorophenyl) ethane, reference compound], the “SNAIDM alone” value [1] was 14.0, the “SNAIDM with P.B. (insecticidal activity; head is a drawing)” value [1] was 5.5 and the “fish toxicity (head is a drawing)” value (fish) was 0.30. The “mouse toxicity (head is a drawing)” value (mice [3]) was 200, the “RSP alone” value ([4]; resistant strain) was 270 and the “RSP with P.B. (insecticidal activity; head is a drawing)” value ([4]; resistant strain) was 70.
For `COc1ccc(C(c2ccc(OC)cc2)C(Cl)(Cl)Cl)cc1` [Methoxychlor, reference compound], the “SNAIDM alone” value [1] was 45.0, the “SNAIDM with P.B. (insecticidal activity; head is a drawing)” value [1] was 3.5 and the “fish toxicity (head is a drawing)” value (fish) was 1. For the same compound, the “RSP alone” value ([4]; resistant strain) was 48 and the “RSP with P.B. (insecticidal activity; head is a drawing)” value ([4]; resistant strain) was 4.6.
With `CCOc1ccc(C(c2ccc(C)cc2)C(C)C)cc1` (stereo not drawn) [XIV] the LD50 ([5]; Musca domestica, without PB) was 150 mg/kg, the “Musca domestica Rsp strain w/PB LD50” value ([5]; with PB) was 31 µg/g and the “Culex fatigans, P50 (number of weeks that at least 50% mortality occurred)” value (Culex fatigans) was 4 weeks. For the same compound, the LC50 (Culex fatigans larvae) was 0.052 µg/mL (≈ 0.194 µM), the “Anopheles albimanus, P50 (number of weeks that at least 50% mortality occurred)” value (Anopheles albimanus) was 6 weeks and the LD50 (Phormia regina) was 35 mg/kg. The “Number of days 100% mortality” value [6] was 0 days, the LC50 [7] was 0.275 µg/mL (≈ 1.02 µM) and the “Culex fatigans adults-LC50” value (Culex fatigans adults) was 5.0 ug/cm^2. The LD50 (Mouse toxicity, LD50) was ≥ 1000 mg/kg, the “safety to mice relative to ethoxychlor” value (mice [8]) was “at least five times safer to mice than is ethoxychlor” and the “Anopheles albimanus adults LC50” value [9] was 5 ug/cm^2. The “insecticidal activity relative to ethoxychlor” value [10] was “at least generally comparable to ethoxychlor”, the LD50 ([11]; Musca domestica, without PB) was 70 mg/kg and the “Musca domestica NAIDM (w/PB) LD50” value ([11]; with PB) was 18 µg/g.
